Results from ChEMBL document CHEMBL1201862, “PubChem BioAssay data set” (2004).
Calls of active or inactive are those of the source.

Columns and labels:
Estrogen receptor beta [1] = biological target: T1, Estrogen receptor beta (Homo sapiens, UniProt Q92731);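 further: recombinant ER-beta bound to coactivator SRC1 peptide in presence of estradiol agonist; inhibitors block coactivator peptide binding and lower the FRET signal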
Bcl-2-like protein 10 = biological target: T2, Bcl-2-like protein 10 (Homo sapiens, UniProt Q9HD36); test: Bcl-B/TR3 peptide binding disruption – biochemical, fluorescence polarization, FITC-TR3 peptide, selectivity assay for Bfl-1 inhibitor project, primary screen (AID 748);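 further: fluorescence polarization from a fluorescein-labelled TR3 peptide binding purified Bcl-B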
T2 sequence (Q9HD36 whole entry): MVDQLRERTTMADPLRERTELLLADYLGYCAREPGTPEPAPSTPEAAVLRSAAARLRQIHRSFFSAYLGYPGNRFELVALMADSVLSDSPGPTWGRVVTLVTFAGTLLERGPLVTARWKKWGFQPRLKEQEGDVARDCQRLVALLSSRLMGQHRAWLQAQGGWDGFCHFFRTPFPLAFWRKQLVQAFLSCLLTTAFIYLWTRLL

Estrogen receptor beta [2] = biological target: T1, Estrogen receptor beta; test: blockers of SRC-3 recruitment to ERβ – biochemical, ELISA, streptavidin-HRP readout, orthogonal assay, confirmation (AID 1060)
Procathepsin L = Procathepsin L (Homo sapiens, UniProt P07711); test: CTSL1 protease inhibition – biochemical, QFRET, 1536-well, counter-screen for M1/M17 aminopeptidase inhibitor project, dose response (AID 2214)
Leucine aminopeptidase = biological target: T3, Leucine aminopeptidase (Plasmodium falciparum 3D7, UniProt Q8IL11); test: P. falciparum M17LAP inhibitors, primary screen, biochemical, fluorogenic H-Leu-NHMec substrate, 1536-well (AID 1619); assay type: functional
T3 sequence (Q8IL11 whole entry): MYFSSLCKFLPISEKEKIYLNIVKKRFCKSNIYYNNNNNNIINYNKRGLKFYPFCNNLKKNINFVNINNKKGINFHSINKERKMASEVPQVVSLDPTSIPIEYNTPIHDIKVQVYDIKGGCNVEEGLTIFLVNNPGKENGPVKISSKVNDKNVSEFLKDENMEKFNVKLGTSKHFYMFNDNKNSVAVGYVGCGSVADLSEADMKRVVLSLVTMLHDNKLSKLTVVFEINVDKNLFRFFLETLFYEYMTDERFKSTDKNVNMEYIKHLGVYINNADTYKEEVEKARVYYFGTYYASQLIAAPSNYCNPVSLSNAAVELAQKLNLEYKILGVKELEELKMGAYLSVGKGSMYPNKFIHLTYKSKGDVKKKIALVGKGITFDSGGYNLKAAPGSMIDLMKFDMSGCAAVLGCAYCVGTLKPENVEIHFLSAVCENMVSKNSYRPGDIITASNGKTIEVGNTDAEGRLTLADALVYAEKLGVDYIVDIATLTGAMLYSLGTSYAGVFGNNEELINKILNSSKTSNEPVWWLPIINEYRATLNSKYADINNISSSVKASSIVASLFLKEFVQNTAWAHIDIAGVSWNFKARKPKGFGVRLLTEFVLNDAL

Aspartyl aminopeptidase = Aspartyl aminopeptidase (Plasmodium falciparum 3D7, UniProt Q8I2J3); test: Counterscreen for inhibitors of M1 and M17 aminopeptidases: QFRET-based biochemical high throughput dose response assay for inhibitors of the Plasmodium falciparum M18 Aspartyl Aminopeptidase (PFM18AAP). [Related PubChem assays: 1619 (Screening assay (M17LAP inhibitors).), 1445 (Screening assay (M1AAP inhibitors).)]
[3] = biological target: T4, Long-chain-fatty-acid--AMP ligase FadD28 (Mycobacterium tuberculosis, UniProt P9WQ59); test: Fluorescence polarization aasay to screen for inhibitors that compete for the binding of FadD28 to a bisubstrate Measured in Biochemical System Using Plate Reader - 2147-01_Inhibitor_Dose_CherryPick_Activity.; assay type: functional, Mycobacterium tuberculosis H37Rv
T4 sequence (P9WQ59 whole entry): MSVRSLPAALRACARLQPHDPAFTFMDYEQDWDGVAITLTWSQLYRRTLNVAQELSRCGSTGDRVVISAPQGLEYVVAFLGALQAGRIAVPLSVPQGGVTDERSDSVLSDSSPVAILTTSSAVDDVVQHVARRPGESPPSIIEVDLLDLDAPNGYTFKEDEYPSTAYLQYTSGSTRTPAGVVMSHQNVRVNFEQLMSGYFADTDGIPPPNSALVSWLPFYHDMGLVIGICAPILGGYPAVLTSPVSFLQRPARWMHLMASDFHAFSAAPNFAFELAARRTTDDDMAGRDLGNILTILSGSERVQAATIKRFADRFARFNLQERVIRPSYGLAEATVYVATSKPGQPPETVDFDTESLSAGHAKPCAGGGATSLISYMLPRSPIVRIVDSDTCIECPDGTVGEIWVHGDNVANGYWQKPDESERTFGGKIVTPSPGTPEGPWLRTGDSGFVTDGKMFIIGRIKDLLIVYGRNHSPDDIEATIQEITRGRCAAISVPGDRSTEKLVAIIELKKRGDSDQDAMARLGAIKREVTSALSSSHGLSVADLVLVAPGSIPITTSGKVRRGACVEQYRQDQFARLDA

[4] = mitochondrial function rescue without frataxin homolog – Friedreich's ataxia, plus single-dose screen, dose response (AID 1465); assay type: functional;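 further: yeast depleted of Yfh1p frataxin homolog grown on glycerol needing respiration; WST-1 tetrazolium dye reduction as measure of cellular dehydrogenase metabolic activity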
[5] = biological target: FAD-linked sulfhydryl oxidase ALR (Homo sapiens, UniProt P55789); test: ALR-catalysed DTT oxidation blockers – biochemical, H2O2 detection, luminescence, cherry-pick, dose response (AID 493248)
[6] = viability loss in HEK293 cells – cell-based, plate reader, cherry-picked samples, cytotoxicity control, dose response (AID 743446); assay type: functional
[7] = biological target: Sphingosine 1-phosphate receptor 1 (Homo sapiens, UniProt P21453); assay type: functional;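 further: Tango beta-arrestin reporter U2OS cells stimulated with S1P near its EC80; inhibitor potency meaning antagonism of receptor activation by the natural agonist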
[8] = A549 cell cytotoxicity, dose response, cytotoxicity control, plate reader, cherry-pick, antagonist series (AID 743412); assay type: functional, cell-based
Paired box protein Pax-8 = Paired box protein Pax-8 (Homo sapiens, UniProt Q06710); test: PAX8 transcriptional activity inhibition in RMG-I – RMG-I cells, luciferase, cherry-pick, dose response (AID 687027); assay type: functional, cell-based;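 further: luciferase reporter driven by Pax8 target thyroperoxidase promoter measured by SteadyGlo luminescence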
[9] = Fluorescence-based cell-based high throughput dose response assay for inhibitors of the interaction of nucleotide-binding oligomerization domain containing 2 (NOD2) and the receptor-interacting serine-threonine kinase 2 (RIPK2).; assay type: functional; conditions: Homo sapiens
INS1 = test: INS-1E survival protection against cytokine death – cell-based, luminescence, retest, dose response (AID 449756); assay type: functional; conditions: Rattus norvegicus;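 further: cell death triggered by IL-1 beta plus TNF-alpha plus IFN-gamma mixture; protective hits raise ATP signal compared with cytokine alone wells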
[10] = toxicity toward HepG2 liver cells – cell-based, plate reader, cherry-pick, antagonist series, cytotoxicity control, dose response (AID 743416); assay type: functional
[11] = blockade of melanocortin 4 receptor signaling – cell-based, plate reader, cherry pick, counter-screen for LGR2 antagonist project, dose response (AID 743444); assay type: functional;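 further: transfected HEK 293 cells stimulated with alpha-MSH peptide; potency of inhibitors of the alpha-MSH evoked signal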
[12] = biological target: T5, Sphingosine 1-phosphate receptor 4 (Homo sapiens, UniProt O95977); test: Late stage fluorescence dose response cell-based screening assay for antagonists of the Sphingosine 1-Phosphate Receptor 4 (S1P4). [Related pubchem assays: 1524 (Confirmation screen (S1P4 antagonists).), 1510 (Primary screen (S1P4 antagonists).), 1853 (Summary AID (S1P4 antagonists).), 1692 (Dose response screen (S1P4 antagonists).)]; assay type: functional
T5 sequence (O95977 whole entry): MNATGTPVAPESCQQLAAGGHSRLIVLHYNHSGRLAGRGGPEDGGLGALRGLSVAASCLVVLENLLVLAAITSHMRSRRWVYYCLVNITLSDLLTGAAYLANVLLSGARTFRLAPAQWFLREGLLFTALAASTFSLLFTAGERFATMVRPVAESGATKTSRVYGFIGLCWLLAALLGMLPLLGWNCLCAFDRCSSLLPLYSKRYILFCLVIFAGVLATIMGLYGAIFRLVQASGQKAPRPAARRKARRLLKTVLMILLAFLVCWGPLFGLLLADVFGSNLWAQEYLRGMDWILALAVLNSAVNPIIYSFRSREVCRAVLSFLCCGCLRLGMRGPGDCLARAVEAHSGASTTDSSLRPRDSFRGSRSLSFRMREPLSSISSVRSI

[13] = biological target: T5, Sphingosine 1-phosphate receptor 4; test: Fluorescence dose response cell-based high throughput screening assay for antagonists of the Sphingosine 1-Phosphate Receptor 4 (S1P4). [Related pubchem assays: 1524 (Confirmation in triplicates.), 1510 (Primary screen.)]; assay type: functional
[14] = blockers of bursicon-stimulated LGR2 cAMP reporter – cell-based, HEK293, CRE-luciferase reporter, cherry pick, set 2, dose response (AID 743343); assay type: functional;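 further: transfected cells were stimulated with diluted bursicon conditioned medium after compound addition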

T1 sequence (Q92731 whole entry): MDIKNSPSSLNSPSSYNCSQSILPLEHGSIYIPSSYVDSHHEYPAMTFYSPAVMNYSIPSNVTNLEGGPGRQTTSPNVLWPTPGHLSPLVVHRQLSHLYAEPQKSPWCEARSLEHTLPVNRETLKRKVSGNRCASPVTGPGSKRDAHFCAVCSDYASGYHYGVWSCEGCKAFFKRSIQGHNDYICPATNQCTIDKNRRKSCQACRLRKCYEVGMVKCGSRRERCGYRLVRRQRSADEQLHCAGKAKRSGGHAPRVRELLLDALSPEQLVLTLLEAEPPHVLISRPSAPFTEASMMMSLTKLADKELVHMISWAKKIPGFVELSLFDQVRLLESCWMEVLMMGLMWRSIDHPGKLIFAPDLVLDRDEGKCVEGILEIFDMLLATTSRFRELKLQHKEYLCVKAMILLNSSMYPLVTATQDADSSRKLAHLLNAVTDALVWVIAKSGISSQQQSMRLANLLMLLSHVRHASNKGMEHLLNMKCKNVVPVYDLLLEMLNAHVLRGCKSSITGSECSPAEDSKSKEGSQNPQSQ
Sequence of FAD-linked sulfhydryl oxidase ALR (P55789 whole entry): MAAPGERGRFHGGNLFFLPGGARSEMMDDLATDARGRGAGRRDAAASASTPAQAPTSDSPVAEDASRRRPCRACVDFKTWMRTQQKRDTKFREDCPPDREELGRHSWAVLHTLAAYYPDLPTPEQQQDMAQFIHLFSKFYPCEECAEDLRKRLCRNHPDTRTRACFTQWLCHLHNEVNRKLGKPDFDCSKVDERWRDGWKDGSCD
Sequence of Sphingosine 1-phosphate receptor 1 (P21453 whole entry): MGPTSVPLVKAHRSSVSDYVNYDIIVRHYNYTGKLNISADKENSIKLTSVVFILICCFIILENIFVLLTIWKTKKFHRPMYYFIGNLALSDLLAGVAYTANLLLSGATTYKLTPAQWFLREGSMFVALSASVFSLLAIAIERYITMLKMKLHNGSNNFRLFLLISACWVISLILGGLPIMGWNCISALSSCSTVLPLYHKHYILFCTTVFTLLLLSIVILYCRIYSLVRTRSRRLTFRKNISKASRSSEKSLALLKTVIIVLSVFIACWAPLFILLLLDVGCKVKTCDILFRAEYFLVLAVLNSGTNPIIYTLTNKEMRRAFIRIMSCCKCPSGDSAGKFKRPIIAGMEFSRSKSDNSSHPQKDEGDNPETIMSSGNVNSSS
Sequence of Aspartyl aminopeptidase (Q8I2J3 whole entry): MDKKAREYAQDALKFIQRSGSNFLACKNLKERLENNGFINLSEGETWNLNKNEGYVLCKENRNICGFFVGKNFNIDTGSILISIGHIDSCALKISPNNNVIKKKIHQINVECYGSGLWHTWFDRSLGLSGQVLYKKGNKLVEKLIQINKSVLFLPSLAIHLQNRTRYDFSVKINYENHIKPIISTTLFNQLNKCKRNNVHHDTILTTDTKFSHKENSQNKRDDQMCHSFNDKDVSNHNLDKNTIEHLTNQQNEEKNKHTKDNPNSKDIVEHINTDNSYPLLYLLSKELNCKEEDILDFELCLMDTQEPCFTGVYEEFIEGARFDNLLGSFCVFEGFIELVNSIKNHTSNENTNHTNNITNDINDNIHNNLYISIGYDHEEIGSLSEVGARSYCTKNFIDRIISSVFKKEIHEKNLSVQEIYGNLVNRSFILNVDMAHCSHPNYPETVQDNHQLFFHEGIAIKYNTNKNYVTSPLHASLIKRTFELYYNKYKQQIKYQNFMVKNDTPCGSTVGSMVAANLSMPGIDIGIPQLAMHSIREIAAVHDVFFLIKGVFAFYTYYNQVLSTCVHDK
Sequence of Paired box protein Pax-8 (Q06710 whole entry, the tested form may be a part): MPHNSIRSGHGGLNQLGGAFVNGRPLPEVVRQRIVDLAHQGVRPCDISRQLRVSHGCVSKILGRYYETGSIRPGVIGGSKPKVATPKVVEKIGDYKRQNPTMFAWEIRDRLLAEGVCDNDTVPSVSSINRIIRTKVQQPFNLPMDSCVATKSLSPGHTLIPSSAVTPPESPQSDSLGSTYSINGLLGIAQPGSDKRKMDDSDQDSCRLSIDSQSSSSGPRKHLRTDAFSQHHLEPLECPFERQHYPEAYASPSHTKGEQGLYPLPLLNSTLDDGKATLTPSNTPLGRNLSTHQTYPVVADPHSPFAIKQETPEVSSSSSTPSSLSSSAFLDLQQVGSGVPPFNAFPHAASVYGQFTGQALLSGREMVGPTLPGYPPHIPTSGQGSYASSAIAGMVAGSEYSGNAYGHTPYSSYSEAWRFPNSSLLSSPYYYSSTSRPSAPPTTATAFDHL
Sequence of Procathepsin L (P07711 whole entry): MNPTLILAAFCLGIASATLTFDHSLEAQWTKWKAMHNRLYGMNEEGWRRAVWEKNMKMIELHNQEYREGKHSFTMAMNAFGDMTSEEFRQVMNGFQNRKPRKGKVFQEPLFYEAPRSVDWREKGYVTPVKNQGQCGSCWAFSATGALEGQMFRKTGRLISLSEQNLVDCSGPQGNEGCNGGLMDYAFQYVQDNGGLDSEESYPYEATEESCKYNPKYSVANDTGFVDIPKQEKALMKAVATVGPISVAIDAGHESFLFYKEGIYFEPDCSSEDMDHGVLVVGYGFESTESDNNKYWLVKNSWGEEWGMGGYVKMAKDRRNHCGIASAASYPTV

In the case of `O=C(COC(=O)c1cccs1)NCc1ccco1`, the IC50 (Estrogen receptor beta [1]) is reported as > 50 µM (not active), the IC50 (Bcl-2-like protein 10) is reported as 85.1 µM (inactive) and the IC50 (Estrogen receptor beta [2]) is reported as 8.95 µM (not active).

With `CCOc1ccc(NC(=O)C2C(C(=O)O)C3(Cl)C(Cl)=C(Cl)C2(Cl)C3(Cl)Cl)cc1` (stereo not given) the IC50 (Procathepsin L) was > 59.6 µM (not active), the IC50 (Leucine aminopeptidase) was < 1 µM (active) and the IC50 (Aspartyl aminopeptidase) was > 73.5 µM (not active). For the same compound, the AC50 [3] was 11.5 µM (active).

In the case of `CCCC(C(=O)O)N1C(=O)/C(=C/c2cccn2C)SC1=S` (stereo not given), the EC50 [4] is reported as > 100 µM (active).

For `COc1ccc([N+](=O)[O-])c(S(=O)(=O)c2ccccc2)n1`, the AC50 [5] was 0.501 µM (active), the AC50 [6] was 8.06 µM (active) and the IC50 [7] was 7.19 µM (active). The AC50 [8] was 8.75 µM (active), the AC50 (Paired box protein Pax-8) was 8.18 µM (active) and the IC50 [9] was 3.15 µM (active). The AC50 (INS1) was 7.12 µM (active), the AC50 [10] was 7.56 µM (active) and the AC50 [11] was 4.27 µM (active). The IC50 [12] was 1.42 µM (not active), the IC50 [13] was 0.691 µM (active) and the AC50 [14] was 4.61 µM (active).
